From patent US20250346597A1, “CONDENSED HETEROCYCLIC COMPOUNDS AS INHIBITOR OF DIACYLGLYCEROL KINASES” (BEONE MEDICINES I GMBH, priority 2023, published 2025)

Assays:
DGKζ = DGKζ (Homo sapiens (Human), UniProt Q13574); experiment: Biochemical DGK IC50 assay (ADP-Glo, lipid micelle substrate), DGKζ; conditions: full length DGKζ 0.5 nM, ATP 140 μM, DAG 80 μM
In short: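 Full-length human His-TEV-tagged DGKζ, expressed in Sf9 cells and purified, was run at room temperature on DAG/PS lipid micelles in 50 mM HEPES, 10 mM MgCl2, 0.01 mM CaCl2 buffer. After 1 h reaction, ADP formed was detected by ADP-Glo luminescence. IC50s came from inhibition across increasing compound concentrations.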

DGKα = DGKα (Homo sapiens (Human), UniProt P23743); experiment: Biochemical DGK IC50 assay (ADP-Glo, lipid micelle substrate), DGKα; conditions: full length DGKα […], ATP 140 μM, DAG 80 μM; further: full length DGKα 7.5 nM
In short: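 Full-length human DGKα assayed by ADP-Glo with DAG/PS lipid micelle substrate at room temperature in 50 mM HEPES, 10 mM MgCl2, 0.01% BSA, 0.1 mM Na3VO4, 0.005% Tween-20, 0.01 mM CaCl2.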

DGKζ, sequence (Q13574 other isoform, or with tags, fused parts or gaps): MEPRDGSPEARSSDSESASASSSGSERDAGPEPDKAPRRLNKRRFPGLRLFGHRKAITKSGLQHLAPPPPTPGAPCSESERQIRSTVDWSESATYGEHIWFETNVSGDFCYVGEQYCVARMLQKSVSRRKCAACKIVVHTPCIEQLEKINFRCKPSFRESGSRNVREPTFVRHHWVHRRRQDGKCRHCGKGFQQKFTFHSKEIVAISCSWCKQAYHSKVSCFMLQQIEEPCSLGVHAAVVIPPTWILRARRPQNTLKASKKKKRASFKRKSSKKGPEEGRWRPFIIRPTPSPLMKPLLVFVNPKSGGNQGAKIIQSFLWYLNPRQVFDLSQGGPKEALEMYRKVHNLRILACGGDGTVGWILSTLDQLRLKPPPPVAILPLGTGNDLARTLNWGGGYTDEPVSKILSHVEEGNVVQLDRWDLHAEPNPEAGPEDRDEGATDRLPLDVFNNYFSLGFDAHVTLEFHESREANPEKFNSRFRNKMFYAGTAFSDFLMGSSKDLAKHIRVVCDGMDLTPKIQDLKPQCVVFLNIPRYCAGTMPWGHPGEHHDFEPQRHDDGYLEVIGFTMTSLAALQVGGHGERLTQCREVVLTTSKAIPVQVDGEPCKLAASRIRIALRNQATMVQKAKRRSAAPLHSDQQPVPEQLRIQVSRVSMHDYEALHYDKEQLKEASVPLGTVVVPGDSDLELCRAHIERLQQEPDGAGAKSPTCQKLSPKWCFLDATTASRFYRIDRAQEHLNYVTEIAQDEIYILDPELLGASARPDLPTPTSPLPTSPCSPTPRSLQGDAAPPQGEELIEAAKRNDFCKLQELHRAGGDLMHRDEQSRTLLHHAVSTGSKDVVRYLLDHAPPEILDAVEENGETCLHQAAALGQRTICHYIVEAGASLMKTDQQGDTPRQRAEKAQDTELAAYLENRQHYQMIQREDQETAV
DGKα, sequence (P23743 whole entry): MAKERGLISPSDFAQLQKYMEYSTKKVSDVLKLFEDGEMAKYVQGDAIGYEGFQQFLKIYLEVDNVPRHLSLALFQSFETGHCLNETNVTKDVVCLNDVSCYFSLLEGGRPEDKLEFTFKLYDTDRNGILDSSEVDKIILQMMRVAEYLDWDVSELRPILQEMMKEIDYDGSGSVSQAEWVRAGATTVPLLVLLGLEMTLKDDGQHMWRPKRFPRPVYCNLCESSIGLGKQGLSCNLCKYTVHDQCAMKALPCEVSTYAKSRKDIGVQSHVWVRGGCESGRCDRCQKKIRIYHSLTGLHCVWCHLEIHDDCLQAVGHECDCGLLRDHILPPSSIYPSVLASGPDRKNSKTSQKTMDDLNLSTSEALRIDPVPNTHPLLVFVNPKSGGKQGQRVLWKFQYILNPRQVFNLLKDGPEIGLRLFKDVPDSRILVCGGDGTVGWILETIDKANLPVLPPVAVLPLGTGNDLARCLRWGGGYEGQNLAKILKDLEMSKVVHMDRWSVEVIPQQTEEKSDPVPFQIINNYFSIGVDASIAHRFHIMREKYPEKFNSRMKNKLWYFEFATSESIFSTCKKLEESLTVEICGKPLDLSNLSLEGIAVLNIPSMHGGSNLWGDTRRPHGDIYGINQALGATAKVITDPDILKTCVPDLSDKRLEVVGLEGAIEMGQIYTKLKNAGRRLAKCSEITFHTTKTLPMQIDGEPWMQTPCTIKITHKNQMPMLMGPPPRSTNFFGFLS

Structure (SMILES) | IC50 (DGKζ) | IC50 (DGKα)
CC[C@H]1CN(C(C)c2ccc(CN3CC(F)(F)C3)cc2)[C@H](CC)CN1c1cc(=O)n(C)c2cn(CC#N)nc12 (stereo partly drawn) [Compound A27, 2-(7-((2S,5R)-4-(1-(4-((3,3-difluoroazetidin-1-yl)methyl)phenyl)ethyl)-2,5-diethylpiperazin-1-yl)-4-methyl-5-oxo-4,5-dihydro-2H-pyrazolo[4,3-b]pyridin-2-yl)acetonitrile] | 202 nM | 50 nM
CC[C@H]1CN(C(C)c2ccc(CN(C)C)cc2)[C@H](CC)CN1c1cc(=O)n(C)c2cn(CC#N)nc12 (stereo partly drawn) [Compound A28, 2-(7-((2S,5R)-4-(1-(4-((dimethylamino)methyl)phenyl)ethyl)-2,5-diethylpiperazin-1-yl)-4-methyl-5-oxo-4,5-dihydro-2H-pyrazolo[4,3-b]pyridin-2-yl)acetonitrile] | 4830 nM | 10000 nM
CC[C@H]1CN(C(C)c2ccc(CNC)cc2)[C@H](CC)CN1c1cc(=O)n(C)c2cn(CC#N)nc12 (stereo partly drawn) [Compound A29, 2-(7-((2S,5R)-2,5-diethyl-4-(1-(4-((methylamino)methyl)phenyl)ethyl)piperazin-1-yl)-4-methyl-5-oxo-4,5-dihydro-2H-pyrazolo[4,3-b]pyridin-2-yl)acetonitrile] | 3930 nM | 2600 nM
CC[C@H]1CN(C(C)c2ccc(-c3cn(C)nn3)cc2)[C@H](CC)CN1c1cc(=O)n(C)c2cn(CC#N)nc12 (stereo partly drawn) [Compound A30, 2-(7-((2S,5R)-2,5-diethyl-4-(1-(4-(1-methyl-1H-1,2,3-triazol-4-yl)phenyl)ethyl)piperazin-1-yl)-4-methyl-5-oxo-4,5-dihydro-2H-pyrazolo[4,3-b]pyridin-2-yl)acetonitrile] | 3690 nM | 666 nM
CC[C@H]1CN(C(C)c2ccc(C(C)C)cc2)[C@H](CC)CN1c1cc(=O)n(C)c2cn(CC#N)nc12 (stereo partly drawn) [Compound A31, 2-(7-((2S,5R)-2,5-diethyl-4-(1-(4-isopropylphenyl)ethyl)piperazin-1-yl)-4-methyl-5-oxo-4,5-dihydro-2H-pyrazolo[4,3-b]pyridin-2-yl)acetonitrile] | 213 nM | 615 nM
CC[C@H]1CN(C(C)c2ccc(OC3CC3)cc2)[C@H](CC)CN1c1cc(=O)n(C)c2cn(CC#N)nc12 (stereo partly drawn) [Compound A32, 2-(7-((2S,5R)-4-(1-(4-cyclopropoxyphenyl)ethyl)-2,5-diethylpiperazin-1-yl)-4-methyl-5-oxo-4,5-dihydro-2H-pyrazolo[4,3-b]pyridin-2-yl)acetonitrile] | 244 nM | 183 nM
CC[C@H]1CN([C@H](C)c2ccc(OC(C)C)cc2)[C@H](CC)CN1c1cc(=O)n(C)c2cn(CC#N)nc12 [Compound A33a] | 45 nM | 49 nM
CC[C@H]1CN([C@@H](C)c2ccc(OC(C)C)cc2)[C@H](CC)CN1c1cc(=O)n(C)c2cn(CC#N)nc12 [Compound A33b] | 770 nM | 344 nM
CC[C@H]1CN(C(C)c2ccc(OC3CC3)nc2)[C@H](CC)CN1c1cc(=O)n(C)c2cn(CC#N)nc12 (stereo partly drawn) [Compound A37, 2-(7-((2S,5R)-4-(1-(6-cyclopropoxypyridin-3-yl)ethyl)-2,5-diethylpiperazin-1-yl)-4-methyl-5-oxo-4,5-dihydro-2H-pyrazolo[4,3-b]pyridin-2-yl)acetonitrile] | 202 nM | 541 nM
CC[C@H]1CN(C(C)c2ccc(OC)nc2)[C@H](CC)CN1c1cc(=O)n(C)c2cn(CC#N)nc12 (stereo partly drawn) [Compound A41, 2-(7-((2S,5R)-2,5-diethyl-4-(1-(6-methoxypyridin-3-yl)ethyl)piperazin-1-yl)-4-methyl-5-oxo-4,5-dihydro-2H-pyrazolo[4,3-b]pyridin-2-yl)acetonitrile] | 151 nM | 347 nM
CC[C@H]1CN(C(C)c2ccc(C(F)(F)F)c(C)n2)[C@H](CC)CN1c1cc(=O)n(C)c2cn(CC#N)nc12 (stereo partly drawn) [Compound A50, 2-(7-((2S,5R)-2,5-diethyl-4-(1-(6-methyl-5-(trifluoromethyl)pyridin-2-yl)ethyl)piperazin-1-yl)-4-methyl-5-oxo-4,5-dihydro-2H-pyrazolo[4,3-b]pyridin-2-yl)acetonitrile] | 83 nM | 703 nM
CC[C@H]1CN(C(C)c2ccc(C3CC3)cn2)[C@H](CC)CN1c1cc(=O)n(C)c2cn(CC#N)nc12 (stereo partly drawn) [Compound A52, 2-(7-((2S,5R)-4-(1-(5-cyclopropylpyridin-2-yl)ethyl)-2,5-diethylpiperazin-1-yl)-4-methyl-5-oxo-4,5-dihydro-2H-pyrazolo[4,3-b]pyridin-2-yl)acetonitrile] | 99 nM | 118 nM
CC[C@H]1CN(C(C)c2ncc(C)cc2C)[C@H](CC)CN1c1cc(=O)n(C)c2cn(CC#N)nc12 (stereo partly drawn) [Compound A53, 2-(7-((2S,5R)-4-(1-(3,5-dimethylpyridin-2-yl)ethyl)-2,5-diethylpiperazin-1-yl)-4-methyl-5-oxo-4,5-dihydro-2H-pyrazolo[4,3-b]pyridin-2-yl)acetonitrile] | 331 nM | 4490 nM
CC[C@H]1CN(C(C)c2ccc(OC)c(C)n2)[C@H](CC)CN1c1cc(=O)n(C)c2cn(CC#N)nc12 (stereo partly drawn) [Compound A55, 2-(7-((2S,5R)-2,5-diethyl-4-(1-(5-methoxy-6-methylpyridin-2-yl)ethyl)piperazin-1-yl)-4-methyl-5-oxo-4,5-dihydro-2H-pyrazolo[4,3-b]pyridin-2-yl)acetonitrile] | 653 nM | 2340 nM
CC[C@H]1CN(C(C)c2ccc(C)c(COC)n2)[C@H](CC)CN1c1cc(=O)n(C)c2cn(CC#N)nc12 (stereo partly drawn) [Compound A56, 2-(7-((2S,5R)-2,5-diethyl-4-(1-(6-(methoxymethyl)-5-methylpyridin-2-yl)ethyl)piperazin-1-yl)-4-methyl-5-oxo-4,5-dihydro-2H-pyrazolo[4,3-b]pyridin-2-yl)acetonitrile] | 271 nM | 2580 nM
CC[C@H]1CN(C(C)c2ncc(C3CC3)cc2C)[C@H](CC)CN1c1cc(=O)n(C)c2cn(CC#N)nc12 (stereo partly drawn) [Compound A57, 2-(7-((2S,5R)-4-(1-(5-cyclopropyl-3-methylpyridin-2-yl)ethyl)-2,5-diethylpiperazin-1-yl)-4-methyl-5-oxo-4,5-dihydro-2H-pyrazolo[4,3-b]pyridin-2-yl)acetonitrile] | 51 nM | 14300 nM
CC[C@H]1CN(C(C)c2ccc(C3CC3)c(C)n2)[C@H](CC)CN1c1cc(=O)n(C)c2cn(CC#N)nc12 (stereo partly drawn) [Compound A58, 2-(7-((2S,5R)-4-(1-(5-cyclopropyl-6-methylpyridin-2-yl)ethyl)-2,5-diethylpiperazin-1-yl)-4-methyl-5-oxo-4,5-dihydro-2H-pyrazolo[4,3-b]pyridin-2-yl)acetonitrile] | 94 nM | 487 nM
CC[C@H]1CN(C(C)c2ccc(OC)cn2)[C@H](CC)CN1c1cc(=O)n(C)c2cn(CC#N)nc12 (stereo partly drawn) [Compound A59, 2-(7-((2S,5R)-2,5-diethyl-4-(1-(5-methoxypyridin-2-yl)ethyl)piperazin-1-yl)-4methyl-5-oxo-4,5-dihydro-2H-pyrazolo[4,3-b]pyridin-2-yl)acetonitrile] | 536 nM | 137 nM
CC[C@H]1CN(C(C)c2ncc(OC)cc2C)[C@H](CC)CN1c1cc(=O)n(C)c2cn(CC#N)nc12 (stereo partly drawn) [Compound A60, 2-(7-((2S,5R)-2,5-diethyl-4-(1-(5-methoxy-3-methylpyridin-2-yl)ethyl)piperazin-1-yl)-4-methyl-5-oxo-4,5-dihydro-2H-pyrazolo[4,3-b]pyridin-2-yl)acetonitrile] | 643 nM | 38000 nM
CC[C@H]1CN(C(C)c2ccc(COC)cn2)[C@H](CC)CN1c1cc(=O)n(C)c2cn(CC#N)nc12 (stereo partly drawn) [Compound A61, 2-(7-((2S,5R)-2,5-diethyl-4-(1-(5-(methoxymethyl)pyridin-2-yl)ethyl)piperazin-1-yl)-4-methyl-5-oxo-4,5-dihydro-2H-pyrazolo[4,3-b]pyridin-2-yl)acetonitrile] | 298 nM | 143 nM
CC[C@H]1CN(C(C)c2ccc(C3CC3)c(F)n2)[C@H](CC)CN1c1cc(=O)n(C)c2cn(CC#N)nc12 (stereo partly drawn) [Compound A62, 2-(7-((2S,5R)-4-(1-(5-cyclopropyl-6-fluoropyridin-2-yl)ethyl)-2,5-diethylpiperazin-1-yl)-4-methyl-5-oxo-4,5-dihydro-2H-pyrazolo[4,3-b]pyridin-2-yl)acetonitrile] | 154 nM | 21 nM
CC[C@H]1CN(C(C)c2cc(F)c(C3CC3)cn2)[C@H](CC)CN1c1cc(=O)n(C)c2cn(CC#N)nc12 (stereo partly drawn) [Compound A63, 2-(7-((2S,5R)-4-(1-(5-cyclopropyl-4-fluoropyridin-2-yl)ethyl)-2,5-diethylpiperazin-1-yl)-4-methyl-5-oxo-4,5-dihydro-2H-pyrazolo[4,3-b]pyridin-2-yl)acetonitrile] | 21 nM | 167 nM
CC[C@H]1CN(C(C)c2cc3c(cc2F)OC(C)(C)CO3)[C@H](CC)CN1c1cc(=O)n(C)c2cn(CC#N)nc12 (stereo partly drawn) [Compound A64, 2-(7-((2S,5R)-2,5-diethyl-4-(1-(7-fluoro-2,2-dimethyl-2,3-dihydrobenzo[b][1,4]dioxin-6-yl)ethyl)piperazin-1-yl)-4-methyl-5-oxo-4,5-dihydro-2H-pyrazolo[4,3-b]pyridin-2-yl)acetonitrile] | 7.8 nM | 1040 nM
CC[C@H]1CN(C(C)c2ccc3c(c2)CCC3)[C@H](CC)CN1c1cc(=O)n(C)c2cn(CC#N)nc12 (stereo partly drawn) [Compound A65, 2-(7-((2S,5R)-4-(1-(2,3-dihydro-1H-inden-5-yl)ethyl)-2,5-diethylpiperazin-1-yl)-4-methyl-5-oxo-4,5-dihydro-2H-pyrazolo[4,3-b]pyridin-2-yl)acetonitrile] | 66 nM | 295 nM
